Test results published in US8846711B2, “Heterocyclic acrylamides and their use as pharmaceuticals” (Fab Pharma S.A.S., priority 2009, dated 2014).
Converted amounts (≈) assume the structure as drawn.

What was measured:
[1] = molecular target: recombinant S. aureus FabI enzyme (Staphylococcus aureus (strain MRSA252), UniProt Q6GI75); assay: FabI inhibition, fluorescence based assay; format: biochemical; conditions: in vitro
Method: Compound inhibitory activity of FabI enzyme is measured in vitro by the […] determination using a fluorescence based assay.
The protein FabI from S. aureus is prepared and purified using standard methods for recombinant protein expression after cloning of the gene in a prokaryotic expression vector.
The biochemical activity of the FabI enzyme is assessed using the following method.
The assay buffer “AB” contained 50 mM ADA (N-(2-acetamido)iminodiacetic acid monosodium salt) pH 6.5, 1 mM dithiothreitol, 0.006% Triton-X100 and 50 mM NaCl.
The following components are added in a white polystyrene Costar plate (Ref 3912) up to a final volume of 55.5 μL: 1.5 μL DMSO or inhibitor dissolved in DMSO and 54 μL of a FabI/NADPH/NADP+ mixture in AB. After 60 min of pre-incubation at room temperature, the reaction is started by addition of 5 μL of trans-2-octenoyl N-acetylcysteamine thioester (t-o-NAC) to a final volume of 60.5 μL. This reaction mixture is then composed of 2 nM FabI, 40 μM NADPH (Sigma, N7505), 10 μM NADP+ (Sigma, N5755), 100 μM t-O-NAC and compound at defined concentration. Fluorescence intensity of NADPH (λex=360 nm, […]) is measured immediately after t-O-NAC addition (T0), and approximately 50 min later (T50) by a Fluostar Optima (BMG) so as to achieve ±30% of NADPH conversion. Enzyme activity is calculated by first subtracting TO signal to T50 and then subtracting background signal (FabI=0). Percentages of inhibition are calculated against untreated samples (Inhibitor=0) and IC50 are fitted to a classical Langmuir equilibrium model using XLFIT (IDBS).

C. albicans (ATCC 90028) = assay: MIC determination using susceptibility method (broth microdilution); format: cell-based; conditions: Candida albicans, ATCC90028, read-out: MIC (μg/ml) C. albicans (ATCC 90028)
Method: (§1) Minimum inhibitory concentrations (MICs) were determined by broth microdilution according to CLSI guidelines (CLSI, M100-20^1, M7-A8^2, M27-A3^3). The compounds were tested in the range from […]. Colonies were taken directly from a second-pass culture plate and prepared to a suspension equivalent to the 0.5 McFarland standard using normal saline. […] The panels were incubated at 35° C. for 16 to 20 hours before reading the MIC endpoints. The compounds of Examples 12, 29, 59, 63 and 66-71 were dissolved in DMSO to make the initial solutions of 5120 μg/ml. These solutions were diluted 1:10 in sterile water to a stock solution of 512 μg/ml. The stock solutions were further diluted into the appropriate broth medium for the sequential dilutions used in the broth microdilution panels. S. pneumoniae was tested in Mueller Hinton (MH) broth with 3% lysed horse blood and C. albicans was tested in RPMI-1640 medium. All other organisms were tested in MH broth.

E. faecalis (ATCC 29212) = assay: as above; format: cell-based; conditions: Enterococcus faecalis, ATCC29212, read-out: MIC (μg/ml) E. faecalis (ATCC 29212)
Method: as §1

MSSA (IHMA #555189) = assay: as above; format: cell-based; conditions: Staphylococcus aureus, read-out: MIC (μg/ml) MSSA (IHMA #555189)
Method: as §1

S. aureus ATCC 29213 = assay: as above; format: cell-based; conditions: Staphylococcus aureus, ATCC29213, read-out: MIC (μg/ml) S. aureus ATCC 29213
Method: as §1

MRSA (IHMA #510059) = assay: as above; format: cell-based; conditions: Staphylococcus aureus, read-out: MIC (μg/ml) MRSA (IHMA #510059)
Method: as §1

E. coli (ATCC 25922) = assay: as above; format: cell-based; conditions: Escherichia coli, ATCC25922, read-out: MIC (μg/ml) E. coli (ATCC 25922)
Method: as §1

[2] = test system: S. pneumoniae (ATCC 49619); assay: as above; format: cell-based; conditions: Streptococcus pneumoniae, ATCC49619, read-out: MIC (μg/ml) S. pneumoniae (ATCC 49619)
Method: as §1

Question: With `NC(=O)c1cc2cc(/C=C/C(=O)N3CCC(COc4ccc(F)cc4)CC3)cnc2[nH]c1=O` [Example 27, 6-[(1E)-3-{4-[(4-Fluorophenoxy)methyl]piperidin-1-yl}-3-oxoprop-1-en-1-yl]-2-oxo-1,2-dihydro-1,8-naphthyridine-3-carboxamide] as the compound, how does the IC50 [1] read?
Answer: 550 nM

Question: `O=C1CCc2cc(/C=C/C(=O)N3CC(Oc4ccccc4)C3)cnc2N1` [Example 6, 6-[(1E)-3-Oxo-3-(3-phenoxyazetidin-1-yl)prop-1-en-1-yl]-3,4-dihydro-1,8-naphthyridin-2(1H)-one] was tested. Which IC50 [1] did it give?
Answer: 1000 nM

Question: Which IC50 [1] does the source give for `O=C1CCc2cc(/C=C/C(=O)N3CC(OCc4ccccc4)C3)cnc2N1` [Example 17, 6-{(1E)-3-[3-(Benzyloxy)azetidin-1-yl]-3-oxoprop-1-en-1-yl}-3,4-dihydro-1,8-naphthyridin-2(1H)-one] here?
Answer: 50 nM

Question: `CC(=O)Nc1ccc(/C=C/C(=O)N2CC(OCc3ccncc3)C2)cn1` [Example 24, N-(5-{(1E)-3-Oxo-3-[3-(pyridin-4-ylmethoxy)azetidin-1-yl]prop-1-en-1-yl}pyridin-2-yl)acetamide] was tested. Which IC50 [1] did it give?
Answer: 260 nM

Question: With `O=C1CCc2cc(/C=C/C(=O)N3CCCC3c3ccccc3)cnc2N1` (stereo not shown) [Example 7, 6-[(1E)-3-Oxo-3-(2-phenylpyrrolidin-1-yl)prop-1-en-1-yl]-3,4-dihydro-1,8-naphthyridin-2(1H)-one] as the compound, how does the IC50 [1] read?
Answer: 7100 nM

Question: Which IC50 [1] does the source give for `CC(Cc1ncccn1)=NOC1CN(C(=O)/C=C/c2cnc3c(c2)CCC(=O)N3)C1` (racemic) [Example 21, 6-{(1E)-3-[3-({[(1E)-1-Methyl-2-pyrimidin-2-ylethylidene]amino}oxy)azetidin-1-yl]-3-oxoprop-1-en-1-yl}-3,4-dihydro-1,8-naphthyridin-2(1H)-one] here?
Answer: 870 nM

Question: With `Nc1ccc(/C=C/C(=O)N2CC(OCc3ccncc3)C2)cn1` [Example 23, 5-{(1E)-3-Oxo-3-[3-(pyridin-4-ylmethoxy)azetidin-1-yl]prop-1-en-1-yl}pyridin-2-amine] as the compound, how does the IC50 [1] read?
Answer: 1800 nM

Question: `Cc1nc(C2CCCCN2C(=O)/C=C/c2cnc3c(c2)CCC(=O)N3)no1` (stereo not shown) [Example 13, 6-{(1E)-3-[2-(5-Methyl-1,2,4-oxadiazol-3-yl)piperidin-1-yl]-3-oxoprop-1-en-1-yl}-3,4-dihydro-1,8-naphthyridin-2(1H)-one] was tested. Which IC50 [1] did it give?
Answer: 4100 nM

Question: For `O=C1CCc2cc(/C=C/C(=O)N3CCC(Oc4cccnc4)C3)cnc2N1` (stereo not shown) [Example 16, 6-{(1E)-3-Oxo-3-[3-(pyridin-3-yloxy)pyrrolidin-1-yl]prop-1-en-1-yl}-3,4-dihydro-1,8-naphthyridin-2(1H)-one], which IC50 [1] is on record?
Answer: 930 nM

Question: For `O=C1CCc2cc(/C=C/C(=O)N3CCCC(COc4ccc(F)cc4)C3)cnc2N1` (stereo not shown) [Example 9, 6-[(1E)-3-{[3-(4-Fluorophenoxy)methyl]piperidin-1-yl}-3-oxoprop-1-en-1-yl]-3,4-dihydro-1,8-naphthyridin-2(1H)-one], which IC50 [1] is on record?
Answer: 1300 nM

Question: How did the IC50 [1] turn out when `O=C1Nc2ncc(/C=C/C(=O)N3CCC(COc4ccc(F)cc4)CC3)cc2CC1CO` (stereo not shown) [Example 28, 3-(Hydroxymethyl)-6-[(1E)-3-{4-[(4-fluorophenoxy)methyl]piperidin-1-yl}-3-oxoprop-1-en-1-yl]-3,4-dihydro-1,8-naphthyridin-2(1H)-one] was run?
Answer: 81 nM

Question: With `O=C1CCc2cc(/C=C/C(=O)N3CCC3)cnc2N1` [Example 1, 6-[(1E)-3-Azetidin-1-yl-3-oxoprop-1-en-1-yl]-3,4-dihydro-1,8-naphthyridin-2(1H)-one] as the compound, how does the IC50 [1] read?
Answer: 11000 nM

Question: For `CCCCCS(=O)(=O)C1CN(C(=O)/C=C/c2cnc3c(c2)CCC(=O)N3)C1` [Example 22, 6-{(1E)-3-[3-(Pentylsulfonyl)azetidin-1-yl]-3-oxoprop-1-en-1-yl}-3,4-dihydro-1,8-naphthyridin-2(1H)-one], which IC50 [1] is on record?
Answer: 8600 nM

Question: Which IC50 [1] does the source give for `O=C1CCc2cc(/C=C/C(=O)N3CCCCC3)cnc2N1` [Example 3, 6-[(1E)-3-Oxo-3-piperidin-1-ylprop-1-en-1-yl]-3,4-dihydro-1,8-naphthyridin-2(1H)-one] here?
Answer: 9900 nM

Question: For `O=C1CCc2cc(/C=C/C(=O)N3CCC(COc4ccc(F)cc4)CC3)cnc2N1` [Example 5, 6-[(1E)-3-{[4-(4-Fluorophenoxy)methyl]piperidin-1-yl}-3-oxoprop-1-en-1-yl]-3,4-dihydro-1,8-naphthyridin-2(1H)-one], which IC50 [1] is on record?
Answer: 250 nM

Question: Which IC50 [1] does the source give for `C=C(C)COC1CN(C(=O)/C=C/c2cnc3c(c2)CCC(=O)N3)C1` [Example 19, 6-[(1E)-3-{3-[(2-Methylprop-2-en-1-yl)oxy]azetidin-1-yl}-3-oxoprop-1-en-1-yl]-3,4-dihydro-1,8-naphthyridin-2(1H)-one] here?
Answer: 170 nM

Question: With `NC(=O)C1Cc2cc(/C=C/C(=O)N3CCC(COc4ccc(F)cc4)CC3)cnc2NC1=O` (stereo not shown) [Example 26, 6-[(1E)-3-{4-[(4-Fluorophenoxy)methyl]piperidin-1-yl}-3-oxoprop-1-en-1-yl]-2-oxo-1,2,3,4-tetrahydro-1,8-naphthyridine-3-carboxamide] as the compound, how does the IC50 [1] read?
Answer: 78 nM

Question: How did the MIC (C. albicans (ATCC 90028)) turn out when `CN1CCC2(CC1)Cc1cc(/C=C/C(=O)N3CC(OCCc4cccs4)C3)cnc1NC2=O` [Example 66, (E)-1′-Methyl-6-(3-oxo-3-(3-(2-(thiophen-2-yl)ethoxy)azetidin-1-yl)prop-1-en-1-yl)-1H-spiro[[1,8]naphthyridine-3,4′-piperidin]-2(4H)-one] was run?
Answer: 64 µg/mL (≈ 137 µM)

Question: And the MIC (E. faecalis (ATCC 29212))?
Answer: 64 µg/mL (≈ 137 µM)

Question: What about the MIC (MSSA (IHMA #555189)) of the same compound?
Answer: 0.25 µg/mL (≈ 0.536 µM)

Question: What about the MIC (S. aureus ATCC 29213) of the same compound?
Answer: 0.25 µg/mL (≈ 0.536 µM)

Question: What about the MIC (MRSA (IHMA #510059)) of the same compound?
Answer: 0.5 µg/mL (≈ 1.07 µM)

Question: What about the MIC (E. coli (ATCC 25922)) of the same compound?
Answer: 64 µg/mL (≈ 137 µM)

Question: And the MIC [2]?
Answer: 64 µg/mL (≈ 137 µM)

Question: For `O=C1CCc2cc(/C=C/C(=O)N3CCC(CCO)CC3)cnc2N1` [Example 4, 6-{(1E)-3-[4-(2-Hydroxyethyl)piperidin-1-yl]-3-oxoprop-1-en-1-yl}-3,4-dihydro-1,8-naphthyridin-2(1H)-one], which IC50 [1] is on record?
Answer: 5300 nM

Question: For `Cc1nc(C2CN(C(=O)/C=C/c3cnc4c(c3)CCC(=O)N4)C2)no1` [Example 11, 6-{(1E)-3-[3-(5-Methyl-1,2,4-oxadiazol-3-yl)azetidin-1-yl]-3-oxoprop-1-en-1-yl}-3,4-dihydro-1,8-naphthyridin-2(1H)-one], which IC50 [1] is on record?
Answer: 150 nM

Question: With `O=C1CCc2cc(/C=C/C(=O)N3CCC(O)(c4ccccc4)CC3)cnc2N1` [Example 14, 6-{(1E)-3-[4-Hydroxy-4-phenylpiperidin-1-yl]-3-oxoprop-1-en-1-yl}-3,4-dihydro-1,8-naphthyridin-2(1H)-one] as the compound, how does the IC50 [1] read?
Answer: 340 nM

Question: How did the IC50 [1] turn out when `O=C1CCc2cc(/C=C/C(=O)N3CC(OCc4nccs4)C3)cnc2N1` [Example 20, 6-{(1E)-3-Oxo-3-[3-(1,3-thiazol-2-ylmethoxy)azetidin-1-yl]prop-1-en-1-yl}-3,4-dihydro-1,8-naphthyridin-2(1H)-one] was run?
Answer: 57 nM

Question: With `COC(=O)C1Cc2cc(/C=C/C(=O)N3CCC(COc4ccc(F)cc4)CC3)cnc2NC1=O` (stereo not shown) [Example 25, Methyl 6-[(1E)-3-{4-[(4-fluorophenoxy)methyl]piperidin-1-yl}-3-oxoprop-1-en-1-yl]-2-oxo-1,2,3,4-tetrahydro-1,8-naphthyridine-3-carboxylate] as the compound, how does the IC50 [1] read?
Answer: 60 nM

Question: Which IC50 [1] does the source give for `O=C1CCc2cc(/C=C/C(=O)N3CCCC3)cnc2N1` [Example 2, 6-[(1E)-3-Oxo-3-pyrrolidin-1-ylprop-1-en-1-yl]-3,4-dihydro-1,8-naphthyridin-2(1H)-one] here?
Answer: 5500 nM

Question: With `O=C1CCc2cc(/C=C/C(=O)N3CCCC[C@@H]3c3nc4ccccc4o3)cnc2N1` [Example 18, 6-{(1E)-3-[2-(1,3-Benzoxazol-2-yl)piperidin-1-yl]-3-oxoprop-1-en-1-yl}-3,4-dihydro-1,8-naphthyridin-2(1H)-one] as the compound, how does the IC50 [1] read?
Answer: 1800 nM
